Results reported in the NIST ThermoML archive (doi:10.1021/acs.jced.6b00542).

Assay: xn = mol fraction of the nth substance listed
Settings: for speed of sound: 100 kPa, Frequency=3 MHz, Sing-around technique in a fixed-path interferometer; for speed of sound / viscosity / mass density: Liquid; for viscosity / mass density: 102 kPa; for viscosity: Concentric cylinders viscometry; for mass density: Vibrating tube method; for surface tension liquid-gas: 294.5 K, Pendant drop shape

CCCCc1ccccc1 [butylbenzene] + CCCCCCCCCCCC
Settings	mass density [kg/m3]	speed of sound [m/s]	viscosity [mPa·s]
293.15 K, x1 = 0.1241	758.28	1300.2	1.38
293.15 K, x1 = 0.2414	768.11	1302.8	1.31
293.15 K, x1 = 0.3524	778.18	1306.4	1.24
293.15 K, x1 = 0.4583	788.6	1310.3	1.19
293.15 K, x1 = 0.5593	799.56	1315.4	1.15
293.15 K, x1 = 0.6552	810.7	1321.3	1.11
293.15 K, x1 = 0.7575	823.88	1328.6	1.08
293.15 K, x1 = 0.8349	834.67	1335.5	1.06
293.15 K, x1 = 0.9194	847.33	1343.9	1.04
293.15 K, x1 = 1	860.51	1353.7	1.05
303.15 K, x1 = 0.1241	750.96	1262	1.17
303.15 K, x1 = 0.2414	760.73	1264.8	1.12
303.15 K, x1 = 0.3524	770.74	1268.4	1.07
303.15 K, x1 = 0.4583	781.11	1272.3	1.03
303.15 K, x1 = 0.5593	791.97	1277.3	0.996
303.15 K, x1 = 0.6552	803.03	1283.1	0.968
303.15 K, x1 = 0.7575	816.12	1290.4	0.941
303.15 K, x1 = 0.8349	826.84	1297	0.925
303.15 K, x1 = 0.9194	839.4	1305.4	0.909
303.15 K, x1 = 1	852.49	1314.9	0.91
313.15 K, x1 = 0.1241	743.61	1224.4	1.01
313.15 K, x1 = 0.2414	753.32	1227.2	0.968
313.15 K, x1 = 0.3524	763.26	1230.8	0.931
313.15 K, x1 = 0.4583	773.56	1234.7	0.9
313.15 K, x1 = 0.5593	784.35	1239.7	0.873
313.15 K, x1 = 0.6552	795.32	1245.4	0.85
313.15 K, x1 = 0.7575	808.33	1252.5	0.829
313.15 K, x1 = 0.8349	818.96	1259.1	0.816
313.15 K, x1 = 0.9194	831.44	1267.3	0.804
313.15 K, x1 = 1	844.43	1276.6	0.801
323.15 K, x1 = 0.1241	–	1187.2	0.879
323.15 K, x1 = 0.2414	–	1190	0.846
323.15 K, x1 = 0.3524	–	1193.7	0.817
323.15 K, x1 = 0.4583	–	1197.6	0.793
323.15 K, x1 = 0.5593	–	1202.5	0.771
323.15 K, x1 = 0.6552	–	1208.1	0.753
323.15 K, x1 = 0.7575	–	1215.2	0.736
323.15 K, x1 = 0.8349	–	1221.6	0.725
323.15 K, x1 = 0.9194	–	1229.7	0.716
323.15 K, x1 = 1	–	1238.7	0.713

Settings	surface tension liquid-gas [mN/m]
x1 = 0.1241	25.4
x1 = 0.2414	26
x1 = 0.3524	26.3
x1 = 0.4583	26.2
x1 = 0.5593	26.7
x1 = 0.6552	27
x1 = 0.7575	27.5
x1 = 0.8349	27.7
x1 = 0.9194	28.4
